These results are taken from patent publication US20130040944A1, “MGLUR4 ALLOSTERIC POTENTIATORS, COMPOSITIONS, AND METHODS OF TREATING NEUROLOGICAL DYSFUNCTION” (VANDERBILT UNIVERSITY, priority 2009, published 2013).

pEC50: −log10 of the molar value.

This test deals with human mGluR4 (Homo sapiens, UniProt Q14833). The test can be described thus: potentiation of human mGluR4 in transfected CHO cells, Ca2+-sensitive dye fluorescence, EC20 agonist. The following applies: hEC50, human mGluR4 potentiation; unit inferred.
Chain of human mGluR4 (Q14833 33-912): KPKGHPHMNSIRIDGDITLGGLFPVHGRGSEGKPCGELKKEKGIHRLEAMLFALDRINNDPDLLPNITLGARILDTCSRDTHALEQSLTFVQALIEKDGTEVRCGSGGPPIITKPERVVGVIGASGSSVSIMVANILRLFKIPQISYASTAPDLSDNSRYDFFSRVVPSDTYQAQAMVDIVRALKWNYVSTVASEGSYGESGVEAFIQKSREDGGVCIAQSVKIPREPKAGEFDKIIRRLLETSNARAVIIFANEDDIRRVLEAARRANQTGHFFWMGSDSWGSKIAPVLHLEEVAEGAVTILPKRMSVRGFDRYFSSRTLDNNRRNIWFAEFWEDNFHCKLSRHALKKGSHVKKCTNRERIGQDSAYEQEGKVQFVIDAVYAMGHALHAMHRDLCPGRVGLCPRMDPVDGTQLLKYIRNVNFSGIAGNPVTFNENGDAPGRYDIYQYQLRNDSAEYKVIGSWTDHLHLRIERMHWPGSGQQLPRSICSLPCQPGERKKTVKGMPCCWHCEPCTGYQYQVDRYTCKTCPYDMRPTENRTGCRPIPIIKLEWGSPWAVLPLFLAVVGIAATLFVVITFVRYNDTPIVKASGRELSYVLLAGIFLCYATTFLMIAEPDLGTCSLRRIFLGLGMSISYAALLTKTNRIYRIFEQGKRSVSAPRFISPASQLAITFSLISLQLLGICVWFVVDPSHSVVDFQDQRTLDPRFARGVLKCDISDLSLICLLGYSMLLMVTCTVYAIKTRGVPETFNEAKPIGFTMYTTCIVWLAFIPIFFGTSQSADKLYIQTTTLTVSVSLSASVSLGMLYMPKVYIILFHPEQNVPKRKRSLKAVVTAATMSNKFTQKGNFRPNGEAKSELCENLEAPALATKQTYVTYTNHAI
By pEC50 is commonly meant −log10 of the EC50, conventionally taken in molar units. As for `O=C(Nc1ccn(S(=O)(=O)c2cc(Cl)ccc2Cl)c1)c1ccccn1` [Example 78, N-(1-((2,5-dichlorophenyl)sulfonyl)-1H-pyrrol-3-yl)picolinamide], the pEC50 was 7.24.
For `N#Cc1ccccc1S(=O)(=O)n1ccc(NC(=O)c2ccccn2)c1` [Example 79, N-(1-((2-cyanophenyl)sulfonyl)-1H-pyrrol-3-yl)picolinamide], the pEC50 was 6.31.
`O=C(Nc1ccn(S(=O)(=O)c2ccc(F)c(F)c2)c1)c1nccs1` [Example 80, N-(1-((3,4-difluorophenyl)sulfonyl)-1H-pyrrol-3-yl)thiazole-2-carboxamide]: the pEC50 is 5.90.
Regarding `Cc1ccc(C)c(S(=O)(=O)n2ccc(NC(=O)c3ccccn3)c2)c1` [Example 81, N-(1-((2,5-dimethylphenyl)sulfonyl)-1H-pyrrol-3-yl)picolinamide], the pEC50 is 6.64.
In the case of `Cc1ccc(S(=O)(=O)n2ccc(NC(=O)c3ccccn3)c2)cc1C` [Example 82, N-(1-((3,4-dimethylphenyl)sulfonyl)-1H-pyrrol-3-yl)picolinamide], the pEC50 was 6.86.
Turning to `Cc1cc(S(=O)(=O)n2ccc(NC(=O)c3ccccn3)c2)ccc1Cl` [Example 83, N-(1-((4-chloro-3-methylphenyl)sulfonyl)-1H-pyrrol-3-yl)picolinamide], the pEC50 is 6.35.
For `O=C(Nc1ccn(S(=O)(=O)Cc2cccc(F)c2)c1)c1nccs1` [Example 84, N-(1-((3-fluorobenzyl)sulfonyl)-1H-pyrrol-3-yl)thiazole-2-carboxamide] the value was 5.32; for `O=C(Nc1ccn(S(=O)(=O)c2cccc(C(F)(F)F)c2)c1)c1ccccn1` [Example 85, N-(1-((3-(trifluoromethyl)phenyl)sulfonyl)-1H-pyrrol-3-yl)picolinamide], 5.79; for `O=C(Nc1ccn(S(=O)(=O)Cc2ccccc2Cl)c1)c1ccc(Cl)cn1` [Example 86, 5-chloro-N-(1-((2-chlorobenzyl)sulfonyl)-1H-pyrrol-3-yl)picolinamide], 5.14.
For the molecule `Cc1cc(F)ccc1S(=O)(=O)n1ccc(NC(=O)c2ccccn2)c1` [Example 87, N-(1-((4-fluoro-2-methylphenyl)sulfonyl)-1H-pyrrol-3-yl)picolinamide], the pEC50 was 6.95.
In the case of `COc1cccc(S(=O)(=O)n2ccc(NC(=O)c3ccccn3)c2)c1` [Example 88, N-(1-((3-methoxyphenyl)sulfonyl)-1H-pyrrol-3-yl)picolinamide], the pEC50 was 6.64.
For `Cc1ccc(F)c(S(=O)(=O)n2ccc(NC(=O)c3ccccn3)c2)c1` [Example 89, N-(1-((2-fluoro-5-methylphenyl)sulfonyl)-1H-pyrrol-3-yl)picolinamide] the value was 6.55; for `O=C(Nc1ccn(S(=O)(=O)c2cccc(F)c2)c1)c1ccccn1` [Example 90, N-(1-((3-fluorophenyl)sulfonyl)-1H-pyrrol-3-yl)picolinamide], 6.75.
For `O=C(Nc1ccn(S(=O)(=O)Cc2cccc(F)c2)c1)c1ccco1` [Example 91, N-(1-((3-fluorobenzyl)sulfonyl)-1H-pyrrol-3-yl)furan-2-carboxamide] the value was 5.17.
For `O=C(Nc1ccn(S(=O)(=O)Cc2c(F)cccc2F)c1)c1ccccn1` [Example 92, N-(1-((2,6-difluorobenzyl)sulfonyl)-1H-pyrrol-3-yl)picolinamide], the pEC50 was 6.82.
For `O=C(Nc1ccn(S(=O)(=O)Cc2c(F)cccc2F)c1)c1nccs1` [Example 93, N-(1-((2,6-difluorobenzyl)sulfonyl)-1H-pyrrol-3-yl)thiazole-2-carboxamide] the value was 6.46; for `CC(C)(C)OC(=O)C(c1ccccc1)S(=O)(=O)n1ccc(NC(=O)c2ccccn2)c1` (centres unmarked) [Example 94, tert-butyl 2-phenyl-2-((3-(picolinamido)-1H-pyrrol-1-yl)sulfonyl)acetate], 4.84.
As for `O=C(Nc1ccn(S(=O)(=O)Cc2ccc(Cl)cc2)c1)c1ccccn1` [Example 95, N-(1-((4-chlorobenzyl)sulfonyl)-1H-pyrrol-3-yl)picolinamide], the pEC50 is 6.47.
`CC(c1ccccc1)S(=O)(=O)n1ccc(NC(=O)c2ccccn2)c1` (centres unmarked) [Example 96, N-(1-((1-phenylethyl)sulfonyl)-1H-pyrrol-3-yl)picolinamide]: the pEC50 was 5.64.
Take `Cc1ccc(C(=O)Nc2ccn(S(=O)(=O)Cc3ccc(Cl)cc3)c2)nc1` [Example 97, N-(1-((4-chlorobenzyl)sulfonyl)-1H-pyrrol-3-yl)-5-methylpicolinamide]: the pEC50 was 6.37.
Turning to `O=C(Nc1ccn(S(=O)(=O)Cc2c(Cl)cccc2Cl)c1)c1ccccn1` [Example 98, N-(1-((2,6-dichlorobenzyl)sulfonyl)-1H-pyrrol-3-yl)picolinamide], the pEC50 was 6.92.
For `O=C(Nc1ccn(S(=O)(=O)c2ccc(Cl)c(Cl)c2)c1)c1ccccn1` [Example 100, N-(1-((3,4-dichlorophenyl)sulfonyl)-1H-pyrrol-3-yl)picolinamide] the value was 6.33; for `COc1ccc(S(=O)(=O)n2ccc(NC(=O)c3ccccn3)c2)cc1OC` [Example 101, N-(1-((3,4-dimethoxyphenyl)sulfonyl)-1H-pyrrol-3-yl)picolinamide], 5.24.
`O=C(Nc1ccn(S(=O)(=O)c2ccc(Cl)c(C(F)(F)F)c2)c1)c1ccccn1` [Example 102, N-(1-((4-chloro-3-(trifluoromethyl)phenyl)sulfonyl)-1H-pyrrol-3-yl)picolinamide]: the negative-log EC50 (pEC50) was 5.29.
For `O=C(Nc1ccn(S(=O)(=O)c2ccc(Cl)c(F)c2)c1)c1ccccn1` [Example 103, N-(1-((4-chloro-3-fluorophenyl)sulfonyl)-1H-pyrrol-3-yl)picolinamide] the value was 6.41; for `O=C(Nc1ccn(S(=O)(=O)c2ccc(C(F)(F)F)c(F)c2)c1)c1ccccn1` [Example 104, N-(1-((3-fluoro-4-(trifluoromethyl)phenyl)sulfonyl)-1H-pyrrol-3-yl)picolinamide], 5.40; for `O=C(Nc1ccn(S(=O)(=O)C(F)c2ccccc2F)c1)c1ccccn1` (centres unmarked) [Example 105, N-(1-((fluoro(2-fluorophenyl)methyl)sulfonyl)-1H-pyrrol-3-yl)picolinamide], 6.37.
For `CC(c1ccccc1Cl)S(=O)(=O)n1ccc(NC(=O)c2ccccn2)c1` (centres unmarked) [Example 106, N-(1-((1-(2-chlorophenyl)ethyl)sulfonyl)-1H-pyrrol-3-yl)picolinamide] the value was 5.98; for `O=C(Nc1ccn(S(=O)(=O)c2cc(F)c(F)cc2Cl)c1)c1ccccn1` [Example 107, N-(1-((2-chloro-4,5-difluorophenyl)sulfonyl)-1H-pyrrol-3-yl)picolinamide], 6.80; for `Cc1cc(S(=O)(=O)n2ccc(NC(=O)c3ccccn3)c2)c(Cl)cc1Cl` [Example 108, N-(1-((2,4-dichloro-5-methylphenyl)sulfonyl)-1H-pyrrol-3-yl)picolinamide], 4.68.
Take `CC(c1ccc(Cl)cc1)S(=O)(=O)n1ccc(NC(=O)c2ccccn2)c1` (centres unmarked) [Example 109, N-(1-((1-(4-chlorophenyl)ethyl)sulfonyl)-1H-pyrrol-3-yl)picolinamide]: the pEC50 is 5.72.
For `O=C(Nc1ccn(S(=O)(=O)c2cc(F)c(F)cc2F)c1)c1ccccn1` [Example 110, N-(1-((2,4,5-trifluorophenyl)sulfonyl)-1H-pyrrol-3-yl)picolinamide] the value was 6.65; for `O=C(Nc1cn(S(=O)(=O)c2ccc(Cl)cc2)c2ccccc12)c1ccccn1` [Example 111, N-(1-((4-chlorophenyl)sulfonyl)-1H-indol-3-yl)picolinamide], 4.91.
For the molecule `Cc1ccc(S(=O)(=O)n2ccc(NC(=O)c3ccccn3)c2)cc1Cl` [Example 112, N-(1-((3-chloro-4-methylphenyl)sulfonyl)-1H-pyrrol-3-yl)picolinamide], the pEC50 is 6.89.
For `Cc1cc(S(=O)(=O)n2ccc(NC(=O)c3ccccn3)c2)c(F)cc1Cl` [Example 113, N-(1-((4-chloro-2-fluoro-5-methylphenyl)sulfonyl)-1H-pyrrol-3-yl)picolinamide] the value was 6.46; for `Cc1cc(C)c(S(=O)(=O)n2ccc(NC(=O)c3ccccn3)c2)cc1Cl` [Example 114, N-(1-((5-chloro-2,4-dimethylphenyl)sulfonyl)-1H-pyrrol-3-yl)picolinamide], 4.64; for `Cc1c(F)cccc1S(=O)(=O)n1ccc(NC(=O)c2ccccn2)c1` [Example 115, N-(1-((3-fluoro-2-methylphenyl)sulfonyl)-1H-pyrrol-3-yl)picolinamide], 6.41.
Regarding `Cc1c(Cl)cccc1S(=O)(=O)n1ccc(NC(=O)c2ccccn2)c1` [Example 116, N-(1-((3-chloro-2-methylphenyl)sulfonyl)-1H-pyrrol-3-yl)picolinamide], the pEC50 was 6.54.
In the case of `O=C(Nc1ccn(S(=O)(=O)c2ccc(Cl)nc2)c1)c1ccccn1` [Example 118, N-(1-((6-chloropyridin-3-yl)sulfonyl)-1H-pyrrol-3-yl)picolinamide], the pEC50 is 6.66.
As to `O=C(Nc1ccn(S(=O)(=O)c2ccc(Cl)cn2)c1)c1ccccn1` [Example 121, N-(1-((5-chloropyridin-2-yl)sulfonyl)-1H-pyrrol-3-yl)picolinamide], the pEC50 was 6.79.
Turning to `CCc1ccc(S(=O)(=O)n2ccc(NC(=O)c3ccccn3)c2)cc1` [Example 122, N-(1-((4-ethylphenyl)sulfonyl)-1H-pyrrol-3-yl)picolinamide], the pEC50 is 6.88.
For `O=C(Nc1ccn(S(=O)(=O)c2ccco2)c1)c1ccccn1` [Example 123, N-(1-(furan-2-ylsulfonyl)-1H-pyrrol-3-yl)picolinamide] the value was 6.16; for `O=C(Nc1ccn(S(=O)(=O)c2cccc(Cl)c2F)c1)c1ccccn1` [Example 124, N-(1-((3-chloro-2-fluorophenyl)sulfonyl)-1H-pyrrol-3-yl)picolinamide], 7.08.
For `O=C(Nc1ccn(S(=O)(=O)c2ccoc2)c1)c1ccccn1` [Example 125, N-(1-(furan-3-ylsulfonyl)-1H-pyrrol-3-yl)picolinamide] the value was 5.83.
